According to ChEMBL document CHEMBL1144691, “Antiproliferative cassane diterpenoids of Cordyla madagascariensis ssp. madagascariensis from the Madagascar rainforest” (J Nat Prod, 2008):

system: A2780; assay: Antiproliferative activity against human A2780 cells; format: functional, cell-based

IC50 [µM]	SMILES
10	CC(=O)OC[C@@]1(CO)CCC[C@]2(C)[C@H]3Cc4occc4[C@H](C)[C@@H]3C[C@@H](OC(C)=O)[C@@H]12 [CORDYLANE A]
36	CC(=O)OC[C@]1(CO)CCC[C@]2(C)[C@H]3Cc4occc4[C@H](C)[C@@H]3C[C@@H](OC(C)=O)[C@@H]12 [CORDYLANE B]
> 60	C[C@H]1c2ccoc2C[C@H]2[C@H]1CC[C@H]1[C@@](CO)(C(=O)O)CCC[C@]21C [CORDYLANE C]
> 60	C=C1c2ccoc2C[C@H]2[C@H]1CC[C@H]1[C@@](CO)(C(=O)O)CCC[C@]21C [CORDYLANE D]
